#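 Cultured in 96-well plates, cells were exposed to test compound for 48 hours across five concentrations. At the TGI there is no net growth.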
# What was measured:
# Assay in all cases: NCI anticancer screen, dose series, 48 h
# 786-0 renal = test system: 786-0 renal
# A498 renal = test system: A498 renal
# A549 NSCLC = test system: A549 NSCLC
# ACHN renal = test system: ACHN renal
# BT-549 breast = test system: BT-549 breast
# DU-145 prostate = test system: DU-145 prostate
# EKVX NSCLC = test system: EKVX NSCLC
# HCT-116 colon = test system: HCT-116 colon
# HCT-15 colon = test system: HCT-15 colon
# HL-60(TB) leukemia = test system: HL-60(TB) leukemia
# HOP-62 NSCLC = test system: HOP-62 NSCLC
# HOP-92 NSCLC = test system: HOP-92 NSCLC
# HS 578T breast = test system: HS 578T breast
# HT29 colon = test system: HT29 colon
# IGROV1 ovarian = test system: IGROV1 ovarian
# K-562 leukemia = test system: K-562 leukemia
# KM12 colon = test system: KM12 colon
# LOX IMVI melanoma = test system: LOX IMVI melanoma
# M14 melanoma = test system: M14 melanoma
# MALME-3M melanoma = test system: MALME-3M melanoma
# MCF7 breast = test system: MCF7 breast
# MDA-MB-231 breast = test system: MDA-MB-231 breast
# MDA-MB-435 = test system: MDA-MB-435
# MDA-N = test system: MDA-N
# MOLT-4 leukemia = test system: MOLT-4 leukemia
# NCI-H226 lung = test system: NCI-H226 lung
# NCI-H460 lung = test system: NCI-H460 lung
# NCI-H522 lung = test system: NCI-H522 lung
# NCI/ADR-RES ovarian = test system: NCI/ADR-RES ovarian
# OVCAR-3 ovarian = test system: OVCAR-3 ovarian
# OVCAR-4 ovarian = test system: OVCAR-4 ovarian
# OVCAR-5 ovarian = test system: OVCAR-5 ovarian
# OVCAR-8 ovarian = test system: OVCAR-8 ovarian
# PC-3 prostate = test system: PC-3 prostate
# RPMI-8226 leukemia = test system: RPMI-8226 leukemia
# SF-268 CNS = test system: SF-268 CNS
# SF-295 CNS = test system: SF-295 CNS
# SF-539 CNS = test system: SF-539 CNS
# SK-MEL-2 melanoma = test system: SK-MEL-2 melanoma
# SK-MEL-28 melanoma = test system: SK-MEL-28 melanoma
# SK-OV-3 ovarian = test system: SK-OV-3 ovarian
# SN12C renal = test system: SN12C renal
# SNB-19 CNS = test system: SNB-19 CNS
# SR leukemia = test system: SR leukemia
# SW-620 colon = test system: SW-620 colon
# TK-10 renal = test system: TK-10 renal
# U251 CNS = test system: U251 CNS
# UACC-257 melanoma = test system: UACC-257 melanoma
# UACC-62 melanoma = test system: UACC-62 melanoma
# UO-31 renal = test system: UO-31 renal
# CAKI-1 renal = test system: CAKI-1 renal
# CCRF-CEM leukemia = test system: CCRF-CEM leukemia
# COLO 205 colon = test system: COLO 205 colon
# HCC-2998 colon = test system: HCC-2998 colon
# NCI-H23 lung = test system: NCI-H23 lung
# SK-MEL-5 melanoma = test system: SK-MEL-5 melanoma
# T-47D breast = test system: T-47D breast
smiles,measurement,setting,value
Cc1nnc(N=Nc2c(O)[nH]c3ccccc23)[nH]c1=O,TGI,786-0 renal,> 100 µM
same,TGI,A498 renal,> 100 µM
same,TGI,A549 NSCLC,> 100 µM
same,TGI,ACHN renal,> 100 µM
same,TGI,BT-549 breast,> 100 µM
same,TGI,DU-145 prostate,> 100 µM
same,TGI,EKVX NSCLC,> 100 µM
same,TGI,HCT-116 colon,> 100 µM
same,TGI,HCT-15 colon,> 100 µM
same,TGI,HL-60(TB) leukemia,> 100 µM
same,TGI,HOP-62 NSCLC,> 100 µM
same,TGI,HOP-92 NSCLC,> 100 µM
same,TGI,HS 578T breast,> 100 µM
same,TGI,HT29 colon,> 100 µM
same,TGI,IGROV1 ovarian,> 100 µM
same,TGI,K-562 leukemia,> 100 µM
same,TGI,KM12 colon,> 100 µM
same,TGI,LOX IMVI melanoma,> 100 µM
same,TGI,M14 melanoma,> 100 µM
same,TGI,MALME-3M melanoma,> 100 µM
same,TGI,MCF7 breast,> 100 µM
same,TGI,MDA-MB-231 breast,> 100 µM
same,TGI,MDA-MB-435,> 100 µM
same,TGI,MDA-N,> 100 µM
same,TGI,MOLT-4 leukemia,> 100 µM
same,TGI,NCI-H226 lung,> 100 µM
same,TGI,NCI-H460 lung,> 100 µM
same,TGI,NCI-H522 lung,> 100 µM
same,TGI,NCI/ADR-RES ovarian,> 100 µM
same,TGI,OVCAR-3 ovarian,> 100 µM
same,TGI,OVCAR-4 ovarian,> 100 µM
same,TGI,OVCAR-5 ovarian,> 100 µM
same,TGI,OVCAR-8 ovarian,> 100 µM
same,TGI,PC-3 prostate,> 100 µM
same,TGI,RPMI-8226 leukemia,> 100 µM
same,TGI,SF-268 CNS,> 100 µM
same,TGI,SF-295 CNS,> 100 µM
same,TGI,SF-539 CNS,> 100 µM
same,TGI,SK-MEL-2 melanoma,> 100 µM
same,TGI,SK-MEL-28 melanoma,> 100 µM
same,TGI,SK-OV-3 ovarian,> 100 µM
same,TGI,SN12C renal,> 100 µM
same,TGI,SNB-19 CNS,> 100 µM
same,TGI,SR leukemia,> 100 µM
same,TGI,SW-620 colon,> 100 µM
same,TGI,TK-10 renal,> 100 µM
same,TGI,U251 CNS,> 100 µM
same,TGI,UACC-257 melanoma,> 100 µM
same,TGI,UACC-62 melanoma,> 100 µM
same,TGI,UO-31 renal,> 100 µM
CSc1ncnc2c1cnn2Cc1cn(COCC(O)CO)nn1 (stereo not drawn),TGI,786-0 renal,> 100 µM
same,TGI,A498 renal,> 100 µM
same,TGI,A549 NSCLC,> 100 µM
same,TGI,ACHN renal,> 100 µM
same,TGI,BT-549 breast,> 100 µM
same,TGI,CAKI-1 renal,> 100 µM
same,TGI,CCRF-CEM leukemia,> 100 µM
same,TGI,COLO 205 colon,> 100 µM
same,TGI,DU-145 prostate,> 100 µM
same,TGI,EKVX NSCLC,> 100 µM
same,TGI,HCC-2998 colon,> 100 µM
same,TGI,HCT-116 colon,> 100 µM
same,TGI,HCT-15 colon,> 100 µM
same,TGI,HL-60(TB) leukemia,> 100 µM
same,TGI,HOP-62 NSCLC,> 100 µM
same,TGI,HOP-92 NSCLC,> 100 µM
same,TGI,HT29 colon,> 100 µM
same,TGI,IGROV1 ovarian,> 100 µM
same,TGI,KM12 colon,> 100 µM
same,TGI,LOX IMVI melanoma,> 100 µM
same,TGI,M14 melanoma,> 100 µM
same,TGI,MCF7 breast,> 100 µM
same,TGI,MDA-MB-231 breast,> 100 µM
same,TGI,MDA-MB-435,> 100 µM
same,TGI,MDA-N,> 100 µM
same,TGI,MOLT-4 leukemia,> 100 µM
same,TGI,NCI-H226 lung,> 100 µM
same,TGI,NCI-H23 lung,> 100 µM
same,TGI,NCI-H522 lung,44.6 µM
same,TGI,NCI/ADR-RES ovarian,> 100 µM
same,TGI,OVCAR-3 ovarian,> 100 µM
same,TGI,OVCAR-4 ovarian,> 100 µM
same,TGI,OVCAR-5 ovarian,> 100 µM
same,TGI,OVCAR-8 ovarian,> 100 µM
same,TGI,PC-3 prostate,> 100 µM
same,TGI,RPMI-8226 leukemia,> 100 µM
same,TGI,SF-268 CNS,52.7 µM
same,TGI,SF-295 CNS,> 100 µM
same,TGI,SF-539 CNS,> 100 µM
same,TGI,SK-MEL-2 melanoma,> 100 µM
same,TGI,SK-MEL-28 melanoma,> 100 µM
same,TGI,SK-MEL-5 melanoma,> 100 µM
same,TGI,SK-OV-3 ovarian,> 100 µM
same,TGI,SN12C renal,> 100 µM
same,TGI,SNB-19 CNS,> 100 µM
same,TGI,SR leukemia,> 100 µM
same,TGI,SW-620 colon,> 100 µM
same,TGI,T-47D breast,> 100 µM
same,TGI,TK-10 renal,> 100 µM
same,TGI,U251 CNS,> 100 µM
same,TGI,UACC-257 melanoma,> 100 µM
same,TGI,UACC-62 melanoma,> 100 µM
same,TGI,UO-31 renal,> 100 µM
